Laboratory results reported in US8119614B2, “Substitution derivatives of N6-benzyladenosine, methods of their preparation, their use for preparation of drugs, cosmetic preparations and growth regulators, pharmaceutical preparations, cosmetic preparations and growth regulators containing these compounds” (Ustav Experimentalni Botaniky Akademie Ved Ceske Republiky, priority 2002, dated 2012).

What was measured:
[1] = test system: breast carcinoma cell lines MCF-7; assay: In vitro cytotoxic activity, Calcein AM assay, MCF7; type: cell-based, human; settings: 72 hours, read-out: IC 50 MCF7
Source text: (§1) One of the parameters used, as the basis for cytotoxicity assays, is the metabolic activity of viable cells. For example, a microtiter assay, which uses the Calcein AM, is now widely used to quantitate cell proliferation and cytotoxicity. For instance, this assay is used in drug screening programs and in chemosensitivity testing. Because only metabolically active cells cleave Calcein AM, these assays detect viable cells exclusively. The quantity of reduced Calcein AM corresponds to the number of vital cells in the culture.
(§2) Human T-lymphoblastic leukemia cell line CEM; promyelocytic HL-60 and monocytic U937 leukemias; breast carcinoma cell lines MCF-7; cervical carcinoma cells HELA; mouse fibroblasts NIH3T3; human erythroleukaemia K562 and human malignant melanoma cells G361 were used for routine screening of compounds. The cells were maintained in Nunc/Corning 80 cm^2 plastic tissue culture flasks and cultured in cell culture medium (DMEM with 5 g/l glucose, 2 mM glutamine, 100 U/ml penicillin, 100 μg/ml streptomycin, 10% fetal calf serum and sodium bicarbonate).
(§3) The cell suspensions that were prepared and diluted according to the particular cell type and the expected target cell density (10^4 cells per well based on cell growth characteristics) were added by pipette (80 μl) into 96/well microtiter plates. Inoculates were allowed a pre-incubation period of 24 hours at 37° C. and 5% CO2 for stabilisation. Four-fold dilutions of the intended test concentration were added at time zero in 20 μl aliquots to the microtiter plate wells. Usually, test compound was evaluated at six 4-fold dilutions. In routine testing, the highest well concentration was 166.7 μM, but it can be the matter of change dependent on the agent. All drug concentrations were examined in duplicates. Incubations of cells with the test compounds lasted for 72 hours at 37° C., in 5% CO2 atmosphere and 100% humidity. At the end of incubation period, the cells were assayed by using the Calcein AM. Ten microliters of the stock solution were pipetted into each well and incubated further for 1 hours. Fluorescence (FD) was measured with the Labsystem FIA Reader Fluoroscan Ascent (UK). The tumour cell survival (GI50) was calculated using the following equitation: GI50=(FDdrug exposed well/mean FDcontrol wells)×100%. The GI50 value, the drug concentration lethal to 50% of the tumour cells, was calculated from the obtained dose response curves (FIG. 3).

[2] = test system: human erythroleukaemia K562; assay: In vitro cytotoxic activity, Calcein AM assay, K-562; type: cell-based; settings: 72 hours, read-out: IC 50 K-562
Source text: as §1, §2, §3

mouse fibroblasts NIH3T3 = assay: In vitro cytotoxic activity, Calcein AM assay, NIH-3T3; type: cell-based; settings: 72 hours, read-out: IC 50 NIH-3T3
Source text: as §1, §2, §3

HOS = assay: In vitro cytotoxic activity, Calcein AM assay, HOS; type: cell-based; settings: 72 hours
[3] = test system: Human T-lymphoblastic leukemia cell line CEM; assay: In vitro cytotoxic activity, Calcein AM assay, CEM; type: cell-based; settings: 72 hours
Source text: as §1, §2, §3

promyelocytic HL-60 = assay: In vitro cytotoxic activity, Calcein AM assay, HL60; type: cell-based, human; settings: 72 hours, read-out: IC 50 HL60
Source text: as §1, §2, §3

[4] = test system: Triticum aestivum cv. Hereward; assay: Senescence inhibition on winter wheat leaf segments (chlorophyll retention); type: in vivo; settings: for Concentration with highest activity: chlorophyll retention in excised wheat leaf tips, 96 h dark; for Activity (%) [10^−4 mol · l^−1 BAP = 100%]: chlorophyll retention, at concentration with highest activity
Experimental: Seeds of winter wheat, Triticum aestivum cv. Hereward, were washed under running water for 24 hours and then sown on vermiculite soaked with Knop's solution. They were placed in the grown chamber at 15° C. with a 16/8 h light period at 50 μmol·m^−2·s^−1. After 7 days, the first leaf was fully developed and the second leaf had started to grow. A tip section of the first leaf, approximately 35 mm long, was removed from 5 seedlings and trimmed slightly to a combined weight of 100 mg. The basal ends of the five leaf tips were placed in the wells of a microtiter polystyrene plate containing 150 μl of a cytokinin solution each. The entire plate was inserted into a plastic box lined with paper tissues soaked in distilled water to prevent leaf sections from drying out. After a 96 h incubation in the dark at 25° C., the leaves were removed and chlorophyll extracted by heating at 80° C. for 10 min in 5 ml of 80% ethanol (v/v). The sample volume was then restored to 5 ml by the addition of 80% ethanol (v/v). The absorbency of the extract was recorded at 665 nm. In addition, chlorophyll extracts from fresh leaves and leaf tips incubated in deionised water were measured. From the obtained data, the concentration with highest activity was selected for each compound tested. Relative activity of the compound at this concentration was calculated (Tab. 10). The activity obtained for 10^−4 M 6-benzylaminopurine (BAP) was postulated as 100%. The values shown are means of five replicates and the whole experiment was repeated twice. The cytokinins to be tested were dissolved in dimethylsulfoxide (DMSO) and the solution brought up to 10^−3M with distilled water. This stock was further diluted in distilled water to concentrations ranging from 10^−8M to 10^−4M.

[5] = test system: Amaranthus caudatus cotyledon/hypocotyl explants; assay: Amaranthus bioassay (betacyanin content); type: in vivo; settings: for Concentration with highest activity: 48 h dark; for Activity (%) [10^−5 mol · l^−1 BAP = 100%]: at concentration with highest activity
Experimental: Standard Amaranthus bioassay was performed with several modifications. The seeds of Amaranthus caudatus var. atropurpurea were surface-sterilised in 10% N-chlorobenzenesulfonamide (w/v) for 10 min and washed 5 times in deionized water. They were placed in 15 cm Petri dishes containing paper tissues saturated with deionized water. After 72 h of cultivation at 25° C. in darkness, the roots of the seedlings were cut off. The explants, consisting of two cotyledons and hypocotyls, were placed in 5 cm Petri dishes on two layers of filter paper soaked in 1 ml of incubation medium containing 10 μmol NA2HPO4-KH2PO4, pH 6.8, 5 μmol tyrosine and the cytokinin to be tested. There were 20 explants per dish. The procedure was carried out under a green safe light in a darkroom. After a 48 h of incubation at 25° C. in darkness, betacyanin was extracted by freezing the explants in 4 ml […] acetic acid. The concentration of betacyanin was determined by comparing the absorbance at 537 nm and 620 nm as follows: ΔA=[…]-[…]. From the obtained data, the concentration with highest activity was selected for each compound tested. Relative activity of the compound at this concentration was calculated (Tab. 12). […] The values shown in table 8 are means of five replicates and the entire test was repeated twice. The cytokinins to be tested were dissolved in dimethylsulfoxide (DMSO) and the solution brought up to 10^-3M with distilled water. This stock was further diluted in the respective media used for the biotest to concentrations ranging from 10^-8M to 10^-4M. […] From the data obtained (FIG. 14) the maximum effective concentration of the tested compound was calculated as well as its relative effectiveness at this concentration (Table 12). […]

[6] = test system: tobacco callus Nicotiana tabacum L. cv. Wisconsin 38; assay: Growth of cytokinin-dependent tobacco callus; type: cell-based; settings: for Activity (%) [10^−5 mol · l^−1 BAP = 100%]: callus growth, at concentration with highest activity; for Concentration with highest activity: fresh callus weight after four weeks
Experimental: Cytokinin-dependent tobacco callus Nicotiana tabacum L. cv. Wisconsin 38 was maintained at 25° C. in darkness on modified Murashige-Skoog medium, containing per 1 liter: 4 μmol nicotinic acid, 2.4 μmol pyridoxine hydrochloride, 1.2 μmol thiamine, 26.6 μmol glycine, 1.37 μmol glutamine, 1.8 μmol myo-inositol, 30 g of sucrose, 8 g of agar, 5.37 μmol α-naphtylacetic acid (NAA) and 0.5 μmol benzylaminopurine (BAP). Subcultivation was carried out every three weeks. Fourteen days before the bioassay, the callus tissue was transferred to the media without 6-benzylaminopurine (BAP). Biological activity was determined from the increase in fresh callus weight after four weeks of cultivation. Five replicates were prepared for each cytokinin concentration and the entire test was repeated twice. From the obtained data, the concentration with highest activity was selected for each compound tested. Relative activity of the compound at this concentration was calculated (Tab. 6). […] The cytokinins to be tested were dissolved in dimethylsulfoxide (DMSO) and the solution brought up to 10^−3M with distilled water. This stock was further diluted in the respective media used for the biotest to concentrations ranging from 10^−8M to 10^−4M.

Row | Structure (SMILES) | IC50 [1] [µM] | IC50 [2] [µM] | IC50 (mouse fibroblasts NIH3T3) [µM] | IC50 (HOS) [µM] | IC50 [3] [µM] | IC50 (promyelocytic HL-60) [µM] | Concentration with highest activity [4] | Activity (%) [10^−4 mol · l^−1 BAP = 100%] [4] [%] | Concentration with highest activity [5] | Activity (%) [10^−5 mol · l^−1 BAP = 100%] [5] [%] | Activity (%) [10^−5 mol · l^−1 BAP = 100%] [6] [%] | Concentration with highest activity [6]
1 | COc1ccc(CNc2ncnc3c2ncn3[C@@H]2O[C@H](CO)[C@@H](O)[C@H]2O)cc1O [3-hydroxy-4-methoxybenzylamino, 6-(3-hydroxy-4-methoxybenzylamino)purine riboside] | > 167 | > 167 | > 167 | > 167 | > 167 | > 167 | 10^−4 mol · l^−1 | 22 ± 5 | 10^−4 mol · l^−1 | 0 | – | –
2 | OC[C@H]1O[C@@H](n2cnc3c(NCc4c(F)ccc(F)c4F)ncnc32)[C@H](O)[C@@H]1O [2,3,6-trifluorobenzylamino, 6-(2,3,6-trifluorobenzylamino)purine riboside] | > 167 | > 167 | > 167 | > 167 | – | 13 | 10^−4 mol · l^−1 | 133 ± 14 | 10^−4 mol · l^−1 | 94 ± 1 | 92 ± 2 | 10^−5 mol · l^−1
3 | OC[C@H]1O[C@@H](n2cnc3c(NCc4ccc(F)c(Cl)c4)ncnc32)[C@H](O)[C@@H]1O [3-chloro-4-fluorobenzylamino, 6-(3-chloro-4-fluorobenzylamino)purine riboside] | > 167 | 4.1 | > 167 | > 167 | 3.4 | 3.5 | 10^−4 mol · l^−1 | 156 ± 10 | 10^−4 mol · l^−1 | 82 ± 5 | 87 ± 4 | 10^−6 mol · l^−1
4 | OC[C@H]1O[C@@H](n2cnc3c(NCc4cc(F)c(F)cc4F)ncnc32)[C@H](O)[C@@H]1O [2,4,5-trifluorobenzylamino, 6-(2,4,5-trifluorobenzylamino)purine riboside] | – | – | – | – | – | – | – | – | 10^−4 mol · l^−1 | 120 ± 1 | 95 ± 3 | 10^−5 mol · l^−1
5 | OC[C@H]1O[C@@H](n2cnc3c(NCc4cc(F)cc(F)c4)ncnc32)[C@H](O)[C@@H]1O [3,5-difluorobenzylamino, 6-(3,5-difluorobenzylamino)purine riboside] | > 167 | > 167 | > 167 | > 167 | 24.5 | 9.1 | 10^−4 mol · l^−1 | 195 ± 14 | 10^−4 mol · l^−1 | 88 ± 1 | 95 ± 3 | 10^−6 mol · l^−1
6 | OC[C@H]1O[C@@H](n2cnc3c(NCc4ccc(F)cc4Cl)ncnc32)[C@H](O)[C@@H]1O [2-chloro-4-fluorobenzylamino, 6-(2-chloro-4-fluorobenzylamino)purine riboside] | > 167 | 11.7 | > 167 | > 167 | 20.9 | 9 | – | – | 10^−4 mol · l^−1 | 115 ± 1 | 98 ± 4 | 10^−5 mol · l^−1
7 | OC[C@H]1O[C@@H](n2cnc3c(NCc4ccc(F)cc4F)ncnc32)[C@H](O)[C@@H]1O [2,4-difluorobenzylamino, 6-(2,4-difluorobenzylamino)purine riboside] | > 167 | 7.4 | > 167 | > 167 | 7.1 | 3.4 | 10^−4 mol · l^−1 | 171 ± 8 | 10^−4 mol · l^−1 | 88 ± 7 | – | –
8 | OC[C@H]1O[C@@H](n2cnc3c(NCc4ccc(Cl)cc4Cl)ncnc32)[C@H](O)[C@@H]1O [2,4-dichlorobenzylamino, 6-(2,4-dichlorobenzylamino)purine riboside] | 127 | 85.7 | > 167 | > 167 | 86.7 | 96.3 | 10^−5 mol · l^−1 | 5 ± 1 | 10^−4 mol · l^−1 | 3 ± 2 | – | –
9 | OC[C@H]1O[C@@H](n2cnc3c(NCc4cccc(I)c4)ncnc32)[C@H](O)[C@@H]1O [3-jodobenzylamino, 6-(3-iodobenzylamino)purine riboside] | – | – | – | – | – | – | 10^−4 mol · l^−1 | 98 ± 4 | 10^−5 mol · l^−1 | 102 ± 18 | 47 ± 12 | 10^−6 mol · l^−1
